Measured values published in publication PMC5785997, “2-Phenylquinazolinones as dual-activity tankyrase-kinase inhibitors” (Scientific Reports, 2018).
Where two headings read alike, the source gives them in different places. One block for each compound: values may come before it.

What was measured:
Type in all cases: biochemical
TNKS2 = TNKS2 (Homo sapiens, UniProt Q9H2K2); assay: NAD+ quantification activity assay, TNKS2
Protocol: The activity assay used to measure the potency of the compounds against TNKS2 is based on the quantification of NAD^+[38]. The reactions were carried out in 96-well plate (Greiner bio-one, U-shaped) and the conditions were the same as reported earlier (Table S5)[24].
The compounds were stored in 100% DMSO at −20 °C. All the compounds were diluted in the TNKS2 assay buffer (50 mM Bis-Tris Propane, 0.5 mM TCEP, 0.01% Triton-100x). Control reactions were used to exclude the effect of compound fluorescence and quenching from the calculations. […] The pIC50 values were calculated and fitted with nonlinear regression using 4-parameters with GraphPad Prism (version 5.0 for windows).
Protein (nM) NAD+ (nM) Incubation Buffer
Kinase [ATP] Substrate Incubation Reaction buffer

CDK9 = CDK9 (Homo sapiens, UniProt P50750); assay: Kinase functional assay (mobility shift), CDK9
Sequence of CDK9 (P50750 whole entry, species assumed): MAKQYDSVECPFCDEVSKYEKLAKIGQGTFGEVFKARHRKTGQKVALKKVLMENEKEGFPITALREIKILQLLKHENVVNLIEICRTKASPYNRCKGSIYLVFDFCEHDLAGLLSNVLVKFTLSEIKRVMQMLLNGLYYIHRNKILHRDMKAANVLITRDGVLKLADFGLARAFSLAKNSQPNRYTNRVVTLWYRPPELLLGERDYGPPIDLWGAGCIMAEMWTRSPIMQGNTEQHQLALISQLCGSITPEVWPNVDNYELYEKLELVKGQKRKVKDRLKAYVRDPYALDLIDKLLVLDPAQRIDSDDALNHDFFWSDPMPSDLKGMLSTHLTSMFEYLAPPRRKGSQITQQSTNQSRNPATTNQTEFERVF
Sequence of CDK9 (O60563 whole entry partner, species assumed): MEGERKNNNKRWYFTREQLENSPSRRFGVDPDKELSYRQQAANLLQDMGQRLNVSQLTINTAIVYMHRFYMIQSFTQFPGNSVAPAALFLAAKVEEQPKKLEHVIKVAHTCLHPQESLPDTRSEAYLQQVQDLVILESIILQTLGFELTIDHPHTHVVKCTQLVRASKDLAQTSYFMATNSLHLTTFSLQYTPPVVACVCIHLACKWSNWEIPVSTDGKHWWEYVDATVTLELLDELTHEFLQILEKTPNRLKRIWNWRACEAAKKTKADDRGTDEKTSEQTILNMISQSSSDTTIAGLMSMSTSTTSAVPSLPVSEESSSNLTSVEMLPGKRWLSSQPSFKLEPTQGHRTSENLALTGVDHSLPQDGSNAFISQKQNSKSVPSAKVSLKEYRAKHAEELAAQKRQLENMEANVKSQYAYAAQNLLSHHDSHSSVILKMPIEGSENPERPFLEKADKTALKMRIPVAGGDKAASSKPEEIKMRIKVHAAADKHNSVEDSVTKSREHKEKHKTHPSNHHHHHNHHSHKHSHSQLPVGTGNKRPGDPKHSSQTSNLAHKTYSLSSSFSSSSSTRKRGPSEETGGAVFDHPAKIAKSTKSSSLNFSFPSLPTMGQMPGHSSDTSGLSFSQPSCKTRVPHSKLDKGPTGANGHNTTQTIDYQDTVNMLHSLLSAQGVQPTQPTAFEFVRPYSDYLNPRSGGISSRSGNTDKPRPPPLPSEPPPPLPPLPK

Akt = assay: Kinase functional assay (mobility shift), Akt; settings: for IC50: dose response
ERK2 = ERK2 (Homo sapiens, UniProt P28482); assay: Kinase functional assay (mobility shift), ERK2 (p42); settings: for p42 inhibition-%: Table 1
Sequence of ERK2 (P28482 whole entry, species assumed): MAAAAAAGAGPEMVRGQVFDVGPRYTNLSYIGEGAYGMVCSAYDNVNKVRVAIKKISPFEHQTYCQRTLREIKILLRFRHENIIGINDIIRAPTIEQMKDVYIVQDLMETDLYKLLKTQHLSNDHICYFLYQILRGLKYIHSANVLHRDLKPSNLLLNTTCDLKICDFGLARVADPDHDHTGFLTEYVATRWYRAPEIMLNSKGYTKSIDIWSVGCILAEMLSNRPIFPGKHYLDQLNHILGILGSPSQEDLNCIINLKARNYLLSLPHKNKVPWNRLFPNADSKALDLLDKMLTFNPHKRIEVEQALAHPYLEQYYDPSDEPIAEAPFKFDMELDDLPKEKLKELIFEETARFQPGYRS

p38α = p38α (Homo sapiens, UniProt Q16539); assay: Kinase functional assay (mobility shift), p38α; settings: for p38 inhibition-%: Table 1
Sequence of p38α (Q16539 whole entry): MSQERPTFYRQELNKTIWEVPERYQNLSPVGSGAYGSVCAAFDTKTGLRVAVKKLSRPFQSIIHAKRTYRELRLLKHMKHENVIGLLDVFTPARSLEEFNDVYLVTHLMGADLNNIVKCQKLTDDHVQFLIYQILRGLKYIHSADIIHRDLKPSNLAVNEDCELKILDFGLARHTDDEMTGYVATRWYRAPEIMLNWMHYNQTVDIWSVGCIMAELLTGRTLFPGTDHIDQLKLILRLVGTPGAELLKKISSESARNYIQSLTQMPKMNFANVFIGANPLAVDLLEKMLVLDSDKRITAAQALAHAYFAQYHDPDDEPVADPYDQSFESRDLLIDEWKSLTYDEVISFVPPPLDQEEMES

GSK3β = GSK3β (Homo sapiens, UniProt P49841); assay: Kinase functional assay (mobility shift), GSK3β; settings: for GSK3β inhibition-%: Table 1
Sequence of GSK3β (P49841 whole entry, species assumed): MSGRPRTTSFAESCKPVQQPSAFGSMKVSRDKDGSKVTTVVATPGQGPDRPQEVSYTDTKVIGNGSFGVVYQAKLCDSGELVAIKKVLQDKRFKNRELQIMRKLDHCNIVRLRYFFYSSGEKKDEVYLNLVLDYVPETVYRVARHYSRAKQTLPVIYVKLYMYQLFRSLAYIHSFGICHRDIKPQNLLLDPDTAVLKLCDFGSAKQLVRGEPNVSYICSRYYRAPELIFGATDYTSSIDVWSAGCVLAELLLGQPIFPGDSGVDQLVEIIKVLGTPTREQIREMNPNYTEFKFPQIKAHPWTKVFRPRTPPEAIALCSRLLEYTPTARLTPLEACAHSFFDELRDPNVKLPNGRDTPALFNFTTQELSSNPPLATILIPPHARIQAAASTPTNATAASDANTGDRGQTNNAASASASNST

human CK2α-1 = molecular target: T1, human CK2α-1 (Homo sapiens, UniProt P68400); assay: ADP-Glo kinase assay, CK2; settings: for CK2 inhibition-%: Table 1
T1 construct: purchased Promega V4,482
T1 sequence (P68400 whole entry): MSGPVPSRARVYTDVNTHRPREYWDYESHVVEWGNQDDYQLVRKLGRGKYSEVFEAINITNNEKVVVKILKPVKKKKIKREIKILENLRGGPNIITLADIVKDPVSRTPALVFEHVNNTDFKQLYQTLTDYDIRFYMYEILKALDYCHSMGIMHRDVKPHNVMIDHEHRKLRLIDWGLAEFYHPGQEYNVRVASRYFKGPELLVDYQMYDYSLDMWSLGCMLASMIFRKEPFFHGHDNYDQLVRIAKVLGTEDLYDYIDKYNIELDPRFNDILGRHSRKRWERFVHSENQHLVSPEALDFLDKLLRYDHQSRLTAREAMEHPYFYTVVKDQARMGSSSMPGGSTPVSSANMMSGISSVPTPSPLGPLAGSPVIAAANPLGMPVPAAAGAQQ
Protocol: The kinase functional assays were performed using a combination of kinase and 1.5 μM peptide substrate in the presence of ATP. The reaction mixture was analyzed on the Caliper LabChip 3,000 (Caliper, Hopkinton, MA) by the electrophoretic mobility shift of the fluorescent substrate and phosphorylated product. For the inhibition of human CK2α-1, the experiments were carried out with ADP-Glo kinase Assay Kit (Promega V9,101). Assays are described in detail in the Supplementary Methods and Table S6. […]
Dose-response curves were generated to determine the concentration required to inhibit 50% of kinase activity (IC50). Staurosporine (Invitrogen BP2,451) was included as a positive control of each enzymatic assay. The profiling of the kinases was done at 1 and at 10 μM of the compound.
For the inhibition of human CK2α-1, the experiments were carried out in a white 384-microplate low flange (Corning 3,572) with ADP-Glo kinase Assay Kit (Promega V9101) and CK2α-1 Kinase Enzyme System (Promega V4,482). The test compounds and standard staurosporine (Invitrogen BP2451), 25 ng/well CK2α-1 kinase and 50 µM ATP were added in a final volume of 10 µl/well using reaction buffer supplied by kit as assay buffer. The reaction mixture was incubated in gentle shaking for 60 minutes at room temperature. After the incubation 10 µl of ADP-Glo reagent was added and incubated in gentle shaking for 40 minutes at room temperature. Finally 20 µl of Kinase Detection Reagent was added and the plate was incubated on a shaker for 30 minutes at room […]
temperature. […]

[1] = Table 1, read-out: TNKS2 IC50 (shown for comparison)
[2] = dose response, read-out: CDK9 IC50

Sequence of TNKS2 (Q9H2K2 959-1164): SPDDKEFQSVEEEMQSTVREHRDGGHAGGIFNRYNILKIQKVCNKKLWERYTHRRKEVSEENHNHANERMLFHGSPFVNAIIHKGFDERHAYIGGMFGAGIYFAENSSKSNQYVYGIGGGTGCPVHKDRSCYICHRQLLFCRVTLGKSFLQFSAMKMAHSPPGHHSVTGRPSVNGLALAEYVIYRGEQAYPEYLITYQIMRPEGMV

SMILES: Oc1nc(-c2ccccc2F)nc2ccccc12 [Compound 26]
- IC50 (TNKS2; TNKS2 IC50, NAD+ 500 nM): 4.77 µM

SMILES: COc1ccc(-c2nc3cc(Cl)ccc3c(=O)[nH]2)cc1 [Compound 40]
- IC50 (TNKS2; TNKS2 IC50, NAD+ 500 nM): 2.46 µM

SMILES: O=c1[nH]c(-c2ccc(O)c(O)c2O)nc2ccccc12 [Compound 24]
- IC50 (TNKS2; TNKS2 IC50, NAD+ 500 nM): 0.44 µM

SMILES: O=c1[nH]c(-c2cccc3cnccc23)nc2ccccc12 [Compound 19]
- IC50 (TNKS2; TNKS2 IC50, NAD+ 500 nM): 42.3 µM

SMILES: O=c1[nH]c(-c2ccc3[nH]ncc3c2)nc2ccccc12 [Compound 20]
- IC50 (TNKS2; TNKS2 IC50, NAD+ 500 nM): 0.4 µM
- inhibition at 1 µM (CDK9; 1 µM compound, Table S3, read-out: CDK9 (% Inhib.)): 7 ± 4%
- inhibition at 10 µM (CDK9; 10 µM compound, Table S4, read-out: CDK9 (% Inhib.)): 34 ± 4%
- AKT (% Inhib.) (Akt; 1 µM compound, Table S3): 1 ± 1%
- AKT (% Inhib.) (Akt; 10 µM compound, Table S4): 1 ± 1%
- inhibition at 1 µM (ERK2; 1 µM compound, Table S3, read-out: ERK2 (% Inhib.)): 3 ± 1%
- inhibition at 10 µM (ERK2; 10 µM compound, Table S4, read-out: ERK2 (% Inhib.)): 14 ± 2%
- inhibition at 1 µM (p38α; 1 µM compound, Table S3, read-out: p38α (% Inhib.)): 1 ± 1%
- inhibition at 10 µM (p38α; 10 µM compound, Table S4, read-out: p38α (% Inhib.)): 3 ± 2%
- inhibition at 1 µM (GSK3β; 1 µM compound, Table S3, read-out: GSK3β (% Inhib.)): 14 ± 1%
- inhibition at 10 µM (GSK3β; 10 µM compound, Table S4, read-out: GSK3β (% Inhib.)): 57 ± 1%
- inhibition at 1 µM (human CK2α-1; 1 µM compound, Table S3, read-out: CK2 (% Inhib.)): 4 ± 3%
- inhibition at 10 µM (human CK2α-1; 10 µM compound, Table S4, read-out: CK2 (% Inhib.)): 12 ± 4%

SMILES: O=c1[nH]c(-c2ccccn2)nc2ccccc12 [Compound 11]
- IC50 (TNKS2; TNKS2 IC50, as quoted in text): 2.4 µM

SMILES: CN(CCO)c1ccc(-c2nc3cc(Cl)ccc3c(=O)[nH]2)cc1 [Compound 41]
- IC50 (TNKS2; TNKS2 IC50, NAD+ 500 nM): 0.66 µM
- IC50 (CDK9; [2]): 6.2 µM
- IC50 (Akt): 14.7 µM

SMILES: C[C@]1(c2ccc(-c3nc4ccccc4c(=O)[nH]3)cc2)NC(=O)NC1=O [(+)-8]
- IC50 (TNKS2; TNKS2 IC50, NAD+ 500 nM): 0.0067 µM

SMILES: Nc1ccccc1-c1nc2ccccc2c(=O)[nH]1 [Compound 14]
- IC50 (TNKS2; TNKS2 IC50, NAD+ 500 nM): 0.7 µM

SMILES: CCOc1ccc(-c2nc3ccccc3c(=O)[nH]2)cc1 [Compound 35]
- IC50 (TNKS2; TNKS2 IC50, NAD+ 500 nM): 0.035 µM

SMILES: COCCN1CC(=O)C(c2nc3ccccc3c(=O)[nH]2)=C1N [Compound 22]
- IC50 (TNKS2; TNKS2 IC50, NAD+ 500 nM): 92 µM

SMILES: COc1ccc(-c2nc3ccccc3c(=O)[nH]2)c(Cl)c1O [Compound 23]
- IC50 (TNKS2; TNKS2 IC50, NAD+ 500 nM): 25.5 µM

Other lines, results leading:

- IC50 (TNKS2; [1]): 0.4 µM
- CDK9 inhibition-% (CDK9; 10 µM compound, Table 1): 34%
- Akt inhibition-% (Akt; 10 µM compound, Table 1): 1%
- p42 inhibition-% (ERK2; 10 µM compound): 14%
- p38 inhibition-% (p38α; 10 µM compound): 3%
- GSK3β inhibition-% (GSK3β; 10 µM compound): 57%
- CK2 inhibition-% (human CK2α-1; 10 µM compound): 12%
SMILES: O=c1[nH]c(-c2ccc3[nH]ncc3c2)nc2ccccc12 [C00001]

- IC50 (TNKS2; [1]): 0.016 µM
- IC50 (CDK9; compound does not completely inhibit the enzyme at concentrations used, IC50 extrapolated by the analysis software, read-out: CDK9 IC50 (extrapolated)): 16.1 µM
- IC50 (Akt): 13.3 µM
SMILES: CN(CCO)c1ccc(-c2nc3ccccc3c(=O)[nH]2)cc1 [C00005]

- IC50 (TNKS2; [1]): 0.66 µM
- IC50 (CDK9; [2]): 6.2 µM
SMILES: CN(CCO)c1ccc(-c2nc3cc(Cl)ccc3c(=O)[nH]2)cc1 [C00004]

- IC50 (TNKS2; [1]): 1.05 µM
- IC50 (CDK9; [2]): 3.4 µM
- p42 inhibition-% (ERK2; 10 µM compound): 51%
- p38 inhibition-% (p38α; 10 µM compound): 45%
- GSK3β inhibition-% (GSK3β; 10 µM compound): 41%
- CK2 inhibition-% (human CK2α-1; 10 µM compound): 2%
SMILES: Nc1ccc(-c2nc3cc(Cl)ccc3c(=O)[nH]2)cc1 [C00006]
